Experimental data taken from PMC10283505, “CVM-1118 (foslinanib), a 2-phenyl-4-quinolone derivative, promotes apoptosis and inhibits vasculogenic mimicry via targeting TRAP1” (Pathology and Oncology Research, 2023).

Columns and labels:
HT-29 = assay: Cytotoxicity assay (Alamar Blue, 72 h); type: cell-based; details: Homo sapiens, HT-29 (Colon)
Description: (§1) For cytotoxicity and cell cycle analysis, the following cell lines were used, and their culture conditions were as described: for A549, DU-145, HT-29, MDA-MB-231, Mia PaCa-2, and U118MG, cells were cultured in DMEM containing 10% FCS; for MDA- MB-435 and NCI-ADR-RES, cells were cultured in RPMI-1640 containing 10% FCS, and for SK-N-MC, cells were cultured in MEM containing 10% FCS. For the animal pharmacology study, HCT-116, a colon cancer cell line was tested. Cells were cultured in McCoy’s 5a medium supplemented with 10% heat inactivated fetal bovine serum. For the cell lines used in VM analysis and target identification, C8161 and COLO205 cells were maintained in RPMI-1640 containing 10% FBS and 0.1% gentamycin sulfate. The SKOV3 line was cultured in RPMI-1640 supplemented with 15% FBS and 0.1% gentamycin sulfate. For the SK-MEL28 and MCF-7, cells were maintained in MEM/Earles Salts supplemented with 10% FBS and 0.1% gentamycin sulfate.
(§2) This assay was conducted in ProQinase GmbH (Freiburg, Germany). Nine cancer cell lines (A549, DU-145, HT-29, MDA-MB-231, MDA-MB-435, Mia PaCa-2, NCI-ADR-RES, SK-N-MC, and U118MG) were seeded at 5,000 cells/well in 96-well cell culture plates in 150 µL of complete medium for 24 h prior to treatment. The test compounds CVM-1118 and CVM-1125 were synthesized by China Medical University, Chengdu Chempartner Co., Ltd., and Formosa Laboratories, Inc. To prepare the assay, the compounds were dissolved in 100% DMSO at a concentration of […]. Cells were then treated with vehicle, CVM-1118 or CVM-1125 at various concentrations for 72 h. Cell viability was determined by the fluorescent quantification of Alamar Blue (Invitrogen, Thermo Fisher Scientific). By the end of incubation, Alamar Blue reagent was added to the well for 4 h and the fluorescence was measured at 590 nm. The amount of fluorescence produced is proportional to the number of metabolically active cells. IC50 determination was performed using a variable slope sigmoidal response fitting model with 0% cell growth as a bottom constraint and 100% cell growth as a top constraint (GraphPad Prism, United States).

DU-145 = assay: Cytotoxicity assay (Alamar Blue, 72 h); type: cell-based; details: Homo sapiens, DU-145 (Prostate)
Description: as §1, §2

SK-N-MC = assay: Cytotoxicity assay (Alamar Blue, 72 h); type: cell-based; details: Homo sapiens, SK-N-MC (Neuroblastoma)
Description: as §1, §2

NCI-ADR-RES = assay: Cytotoxicity assay (Alamar Blue, 72 h); type: cell-based; details: Homo sapiens, NCI-ADR-RES (Ovarian)
Description: as §1, §2

U118MG = assay: Cytotoxicity assay (Alamar Blue, 72 h); type: cell-based; details: Homo sapiens, U-118-MG, U118MG (Glioma)
Description: as §1, §2

A549 = assay: Cytotoxicity assay (Alamar Blue, 72 h); type: cell-based; details: Homo sapiens, A549 (Lung)
Description: as §1, §2

MDA-MB-435 = assay: Cytotoxicity assay (Alamar Blue, 72 h); type: cell-based; details: Homo sapiens, MDA-MB-435 (Melanoma)
Description: as §1, §2

MDA-MB-231 = assay: Cytotoxicity assay (Alamar Blue, 72 h); type: cell-based; details: Homo sapiens, MDA-MB-231 (Breast)
Description: as §1, §2

Mia PaCa-2 = assay: Cytotoxicity assay (Alamar Blue, 72 h); type: cell-based; details: Homo sapiens, Mia PaCa-2 (Pancreatic)
Description: as §1, §2

[1] = system: nine selected human cancer cell lines; assay: Cytotoxicity assay, panel of nine selected human cancer cell lines; type: cell-based; details: all nine cell lines of Table 1
Description: as §2

[2] = Pharmacokinetic study of oral CVM-1118 in mouse (plasma, LC-MS/MS); type: in vivo, male CD-1 mice; details: for AUC(0-inf) / AUC(0-t) / Cmax / MRT / Tmax / half-life: mouse, analyte in plasma after single oral CVM-1118 30 mg/kg in 9% NaHCO3, fasted male CD-1 mice; for half-life: read-out: T1/2 (terminal half-life) (converted)
Description: Supplementary Results on Pharmacokinetic study of oral CVM-1118 in Mouse Method: The pharmacokinetics of CVM-1118 and CVM-1125 were investigated in male CD-1 mice following a single oral administration of CVM-1118 at 30 mg/kg in 9% NaHCO3 in fasted mice. At pre-determined time points, plasma samples were collected and stored at -20°C prior to measurement of CVM-1118 and CVM-1125 concentrations using an LC-MS/MS method. The plasma samples were collected at 0, 0.25, 0.5, 1, 2, 4, 8, 12, 24 and 27 h after dosing with 3 mice per group at each time […]
Result: For single oral administration of 30 mg/kg CVM-1118 in 9% NaHCO3 solution, […]
from CVM-1118 to CVM-1125 occurred very rapidly.
1118 and CVM-1125. The drug exposure (AUC0-inf) of CVM-1118 was low (7 ng·h/mL), indicating rapid conversion to CVM-1125 following oral dosing (AUC0-inf of TRX-818M1 was 287 ng·h/mL). The terminal half-life of CVM-1118 and CVM-1125 were 0.7 h and 8.3 h, respectively. The oral bioavailability of CVM-1118 was low (~3%), […]
1118, was considered favorable.
Mean plasma concentrations-time curves of CVM-1118 and CVM-1125 following a single dose of CVM-1118 in male CD-1 mice
(§3) (1 picture or pasted object on this page, not shown here)

HCT-116 cells = assay: Flow cytometry cell cycle analysis (PI); type: cell-based, human; details: HCT-116, 48 hours, dose-response
Description: Figure S2 CVM-1125 induced cell cycle arrest at G2/M in HCT-116 cells
Dose-response of CVM-1125 on cell cycle profile in HCT-116 cells was assessed by flow cytometry after treatment for 48 hours. Fluorescent signals of propidium iodide (FL2-A) of single cells were attributed to cell cycle phases and converted into percentage of the whole population of single cells (100%). The data shown are representative of at least three independent experiments.
as §3

SMILES | IC50 (HT-29) | IC50 (DU-145) | IC50 (SK-N-MC) | IC50 (NCI-ADR-RES) | IC50 (U118MG) | IC50 (A549) | IC50 (MDA-MB-435) | IC50 (MDA-MB-231) | IC50 (Mia PaCa-2) | IC50 [1] | bioavailability ([2]; male, CD-1, mouse, plasma, po, 30 mg/kg, single oral CVM-1118 30 mg/kg in 9% NaHCO3, fasted male CD-1 mice, read-out: F (oral bioavailability)) | AUC(0-inf) [2] | AUC(0-t) [2] | Cmax [2] | MRT [2] | Tmax [2] | half-life [2] | F (oral bioavailability) ([2]; single oral CVM-1118 30 mg/kg in 9% NaHCO3, fasted male CD-1 mice, 30 mg/kg) | Effect on cell cycle profile (HCT-116 cells)
COc1ccc2[nH]c(-c3cccc(F)c3)cc(=O)c2c1OP(=O)(O)O [CVM-1118] | 15 nM | 21 nM | 9 nM | 14 nM | 10 nM | 26 nM | 4 nM | 18 nM | 11 nM | < 50 nM | ~3% | 7 ng·h/mL | 7 ng·h/mL | 21 ng/mL | 36 min | 15 min | 42 min | 2.96% | 
COc1ccc2[nH]c(-c3cccc(F)c3)cc(=O)c2c1O [CVM-1125] | 17 nM | 27 nM | 8 nM | 14 nM | 8 nM | 29 nM | 5 nM | 14 nM | 7 nM | < 50 nM |  | 287 ng·h/mL | 279 ng·h/mL | 349 ng/mL | 180 min | 15 min | 498 min |  | G2/M arrest and increased sub-G1
